Common to all, as to assay: NCI-60 cell line screen, 48 h
The subject of assay [1] is 786-0.
Assay [2] relates to BT-549.
The test system of assay [3] is EKVX.
The subject of assay [4] is HCT-116.
The subject of assay [5] is HOP-92.
For assay [6], the system named is M14.
Assay [7] concerns MCF7.
Assay [8] relates to MDA-MB-231.
Assay [9] deals with MDA-N.
Assay [10] has as its system NCI-H226.
The test system of assay [11] is NCI-H23.
Assay [12] deals with OVCAR-8.
Assay [13] deals with PC-3.
Assay [14] deals with SF-268.
Assay [15] relates to SR.
Assay [16] deals with SW-620.
For assay [17], the system named is U-251.
The test system of assay [18] is UACC-62.
For assay [19], the system named is Malme-3M.

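Exposure lasted 48 hours, with cells grown in 96-well plates and compounds tested at five concentrations. Here, GI50 denotes the concentration required for 50% inhibition of growth.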 The source made the active and inactive calls. Rule as the data show it: active = GI50 up to about 1.1 µM and inactive = higher. *1 amine or outer side, *2 acyl side, *3 side chain or, on linkers, in order; H or OH if unused. Where a SMILES comes first, the peptide text is derived from it. Bridges are numbered along the chain shown (N, C = ends). Roman numbers before positions name the chains, in order. [ ]: non-standard residue; d: D form. Actinocin(1to9) = Cc1c2oc3c(C)ccc(C(=O)[*:2])c3nc-2c(C(=O)[*:1])c(N)c1=O; NMeV = CN[CH](C(=O)O)C(C)C; Sar = CNCC(=O)O

For `CN(C)c1ccc2c3c(c(=O)oc2c1)CCC3`, the GI50 in [1] is 58.6 µM (inactive); in [2] it was > 100 µM (inactive); in assay [3] it was 9.14 µM (inactive); in [4] it was 60.8 µM (inactive); in assay [5] it was 38.7 µM (inactive); in assay [6], 92.3 µM (inactive). Moreover, the GI50 was 28.2 µM (inactive) in assay [7]; 28.7 µM (inactive) in [8]; 97.9 µM (inactive) in [9]; 85.5 µM (inactive) in assay [10]; 74 µM (inactive) in assay [11]; 64.4 µM (inactive) in [12]. For the same molecule, the GI50 in assay [13] was 90.4 µM (inactive); in assay [14] it was 34.8 µM (inactive); in [15], 42.6 µM (inactive); in assay [16], > 100 µM (inactive); in [17], 88.3 µM (inactive); in [18] it was 29.4 µM (inactive).

Take `CC1(C)OC[C@@H](O)[C@H](Br)CO1`: the GI50 in assay [1], in assay [2], in assay [3], in assay [4], in [6] and in [7] was > 100 µM (inactive) throughout. The GI50 in [8], in [9], in assay [19], in [10], in assay [11] and in assay [12] was > 100 µM (inactive) throughout. Also, the GI50 in assay [13] is > 100 µM (inactive); in assay [14] it was 53.8 µM (inactive); in assay [15] it was > 100 µM (inactive); in [16], > 100 µM (inactive); in assay [17] it was > 100 µM (inactive); in assay [18], > 100 µM (inactive).

As for `Cc1cc(NS(=O)(=O)c2ccc(Nc3c4ccccc4nc4c(C(=O)NCCO)cccc34)cc2)no1`, the GI50 in assay [1] was 30.8 µM (inactive); in assay [2], 16.8 µM (inactive); in assay [3], 60 µM (inactive); in [5], 20.5 µM (inactive); in assay [6] it was 29 µM (inactive); in assay [7] it was 14.9 µM (inactive). The GI50 in [8] was 17.9 µM (inactive); in assay [9], 35.8 µM (inactive); in assay [19], 28.1 µM (inactive); in assay [11] it was 39.2 µM (inactive); in [12], 34.5 µM (inactive); in assay [13], 39.2 µM (inactive). Further, the GI50 was 30.5 µM (inactive) in assay [14]; 22.5 µM (inactive) in [15]; 22.6 µM (inactive) in assay [16]; 27.7 µM (inactive) in assay [17]; 20.2 µM (inactive) in assay [18].

As for `CC(C)CC(NC(=O)C(CCI)Cc1ccccc1)C(=O)Nc1ccccc1` (stereo unspecified), the GI50 was > 100 µM (inactive) in assay [1]; 10.8 µM (inactive) in assay [2]; 42 µM (inactive) in assay [3]; 43.4 µM (inactive) in [4]; > 100 µM (inactive) in assay [5]; 35.6 µM (inactive) in [6]. For the same molecule, the GI50 is 39.7 µM (inactive) in assay [7]; > 100 µM (inactive) in [8]; > 100 µM (inactive) in assay [9]; > 100 µM (inactive) in assay [19]; 58.6 µM (inactive) in assay [10]; 49 µM (inactive) in assay [11]. In addition, the GI50 in [12] is 49.5 µM (inactive); in assay [13], 51.1 µM (inactive); in assay [15] it was 22.8 µM (inactive); in assay [16], 49.8 µM (inactive); in [17], > 100 µM (inactive); in assay [18] it was > 100 µM (inactive).

As to `CCc1nnc(CC)n1NCCCC(=O)O`, the GI50 in assay [1], in [2], in assay [3], in assay [4], in assay [5] and in assay [6] was > 100 µM (inactive) in each case. Also, the GI50 in [7], in [8], in assay [9], in assay [11], in assay [12] and in assay [13] was > 100 µM (inactive) in each case. The GI50 in assay [14], in assay [15], in assay [16], in assay [17] and in assay [18] was > 100 µM (inactive) in each case.

As for `N#Cc1ccc(-c2nc3c(N)nc(-c4ccccc4)nc3o2)cc1`, the GI50 in assay [1] was > 100 µM (inactive); in assay [2], > 100 µM (inactive); in [3], > 100 µM (inactive); in assay [4], 31.8 µM (inactive); in assay [5], 31.5 µM (inactive); in assay [6] it was > 100 µM (inactive). Further, the GI50 in assay [7] was > 100 µM (inactive); in [8] it was 13.3 µM (inactive); in assay [9], > 100 µM (inactive); in assay [10], > 100 µM (inactive); in assay [11], > 100 µM (inactive); in [12], 12.9 µM (inactive). In addition, the GI50 is > 100 µM (inactive) in assay [13]; > 100 µM (inactive) in [14]; > 100 µM (inactive) in assay [15]; > 100 µM (inactive) in assay [16]; 5.11 µM (inactive) in [17]; > 100 µM (inactive) in assay [18].

With `C=C(Cl)C(=C)CCC(Cl)C(C)C` (stereo unspecified), the GI50 in assay [1], in assay [2], in assay [3], in assay [4], in [5] and in [6] was > 100 µM (inactive) each time. Also, the GI50 in assay [7], in assay [8], in assay [9], in [19], in assay [10] and in assay [11] was > 100 µM (inactive) throughout. In addition, the GI50 in assay [13], in [14], in [15], in assay [16], in assay [17] and in assay [18] was > 100 µM (inactive) each time.

With `COc1cc(CNNC(N)=S)cc(OC)c1OC`, the GI50 in assay [1] is > 100 µM (inactive); in assay [2] it was 22.3 µM (inactive); in assay [3] it was > 100 µM (inactive); in assay [4] it was > 100 µM (inactive); in assay [5] it was 3.46 µM (inactive); in assay [6] it was > 100 µM (inactive). Also, the GI50 in [7], in [8], in assay [9], in assay [19], in assay [10] and in [11] was > 100 µM (inactive) in each case. Moreover, the GI50 in [12], in [13], in assay [14], in [15], in assay [16] and in assay [17] was > 100 µM (inactive) throughout.

`CO/C=C(/C(=O)OC)c1ccccc1[C@@H]1CC1c1cccc(F)c1` (stereo partly specified): the GI50 in [1] is 41 µM (inactive); in assay [2] it was 25.4 µM (inactive); in assay [3], 30.5 µM (inactive); in assay [4], 21.1 µM (inactive); in assay [5] it was 23.3 µM (inactive); in assay [6], 19.8 µM (inactive). The GI50 in assay [7] was 43.6 µM (inactive); in assay [8], 29.9 µM (inactive); in [9], 22.1 µM (inactive); in assay [19] it was 16 µM (inactive); in assay [10], 25.6 µM (inactive); in assay [11], 24.5 µM (inactive). In addition, the GI50 is 33.5 µM (inactive) in assay [12]; 29 µM (inactive) in assay [13]; 37.5 µM (inactive) in assay [14]; 21.2 µM (inactive) in assay [15]; 30.5 µM (inactive) in assay [17]; 18.2 µM (inactive) in assay [18].

For `COc1ccccc1-c1nc(O)c2ccccc2n1`, the GI50 in assay [1] was > 100 µM (inactive); in assay [2], > 100 µM (inactive); in [3], 59.6 µM (inactive); in assay [4] it was > 100 µM (inactive); in [6] it was > 100 µM (inactive); in assay [7], > 100 µM (inactive). The GI50 in assay [8] was > 100 µM (inactive); in [9], > 100 µM (inactive); in assay [19], > 100 µM (inactive); in assay [10] it was 68.1 µM (inactive); in assay [11] it was > 100 µM (inactive); in [12] it was > 100 µM (inactive). Besides, the GI50 in assay [13], in [14], in assay [15], in assay [16], in assay [17] and in assay [18] was > 100 µM (inactive) in each case.

For the molecule `COc1ccc(CC2NC(=O)C(NC(=O)c3c4nc5c(C(=O)NC6C(=O)NC(Cc7ccc(OC)cc7)C(=O)N7CCCC7C(=O)N(C)CC(=O)N(C)C(C(C)C)C(=O)OC6C)ccc(C)c5oc-4c(C)c(=O)c3N)C(C)OC(=O)C(C(C)C)N(C)C(=O)CN(C)C(=O)C3CCCN3C2=O)cc1` (stereo unspecified) (I: TY(Me)P[Sar][NMeV] / II: TY(Me)P[Sar][NMeV]; ester I:1-I:C, II:1-II:C; linker I:N-II:N via Actinocin(1to9); configuration not given here), the GI50 in assay [1] was 0.0141 µM (active); in assay [2], 0.01 µM (active); in [3], 0.164 µM (active); in [4], < 0.001 µM (active); in assay [6], 0.00678 µM (active); in assay [7], < 0.001 µM (active). The GI50 was 0.0371 µM (active) in assay [8]; < 0.001 µM (active) in assay [9]; < 0.001 µM (active) in assay [19]; 0.0135 µM (active) in assay [10]; 0.00147 µM (active) in assay [11]; < 0.001 µM (active) in assay [12]. Further, the GI50 is < 0.001 µM (active) in assay [13]; 0.0219 µM (active) in [14]; < 0.001 µM (active) in [15]; < 0.001 µM (active) in assay [16]; < 0.001 µM (active) in [17]; < 0.001 µM (active) in [18].

The values are drawn from ChEMBL document CHEMBL1201862, “PubChem BioAssay data set” (2004).
